The values that follow come from patent US8575135B2 (Gilead Sciences, Inc., priority 2011, dated 2013).

Common to all, as to assay: microbe, parasite or virus in culture
What all share (conditions): Hepatitis C virus

The subject of experiment [1] is stable HCV 1a RLuc replicon cells (genotype 1a H77 replicon). The format is cell-based.
Experiment [2] concerns stable HCV 2a JFH-1 Rluc replicon cells (L31 present in NS5A). The format is cell-based.
Experiment [3] relates to NS5A chimeric genotype 1b Con1 replicon with genotype 3a S52 strain NS5A gene. The format is cell-based, HCV. The method, boiled down:
(§1)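 Genotype 3a (S52) and 4a (ED43) NS5A chimeras use 1b Con1 Pi-RLuc replicons, transfected transiently; 2b MD2b-1 NS5A chimera (M31) uses 2a JFH-1 RLuc-Neo replicon, transient or stable.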

For experiment [4], the system named is NS5A chimeric genotype 2a JFH-1 replicon with genotype 2a J6 strain NS5A gene (M31 present). The format is cell-based, HCV.
Experiment [5] has as its system NS5A chimeric genotype 2a JFH-1 replicon with genotype 2b MD2b-1 strain NS5A gene (M31 present). The format is cell-based, HCV. In outline: as §1
For experiment [6], the system named is NS5A chimeric genotype 1b Con1 replicon with genotype 4a ED43 strain NS5A gene. The format is cell-based, HCV.
Experiment [7] concerns 1a Pi-Rluc replicon with Q30R in genotype 1a NS5A. The format is cell-based, HCV. The method, boiled down: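 Renilla luciferase replicon assay: 1a Pi-RLuc replicon carrying NS5A Q30R, transfected transiently into cured-51 (Huh-7-derived) cells.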

Structures are written as SMILES. Where two headings read alike, the source gives them in different places.

Take `COC(=O)N[C@H](C(=O)N1C[C@@H](C)C[C@H]1c1nc2ccc3cc4c(cc3c2[nH]1)OCc1cc(-c2cnc([C@@H]3CC[C@H](C)N3C(=O)[C@@H](NC(=O)OC)C(C)C)[nH]2)ccc1-4)C(C)C` [Example NC, Methyl {(2S)-1-[(2S,5S)-2-(5-{2-[(2S,4S)-1-{(2S)-2-[(methoxycarbonyl)amino]-3-methylbutanoyl}-4-methylpyrrolidin-2-yl]-1,11-dihydroisochromeno[4′,3′:6,7]naphtho[1,2-d]imidazol-9-yl}-1H-imidazol-2-yl)-5-methylpyrrolidin-1-yl]-3-methyl-1-oxobutan-2-yl}carbamate]: the EC50 in experiment [1] (read-out: 1a) is below 1 nM; in experiment [1] (read-out: 1a (nM)), 0.007 nM; in experiment [2] (read-out: 2a JFH), below 1 nM; in experiment [2] (read-out: 2a JFH (nM)), 0.005 nM; in experiment [3] (read-out: 3a), below 1 nM; in experiment [3] (read-out: 3a (nM)), 0.014 nM. In addition, the EC50 in experiment [4] (read-out: 2a J6) is below 1 nM; in experiment [4] (read-out: 2a J6 (s) (nM)) it was 0.762 nM; in experiment [4] (read-out: 2a Jb (t) (nM)), 0.089 nM; in experiment [5] (read-out: 2b), below 1 nM; in experiment [5] (read-out: 2b (s) (nM)) it was 0.191 nM; in experiment [5] (read-out: 2b (t) (nM)), 0.068 nM. Also, the EC50 was below 1 nM in experiment [6] (read-out: 4a); 0.026 nM in experiment [6] (read-out: 4a (s) (nM)); 0.011 nM in experiment [6] (read-out: 4a (t) (nM)); below 1 nM in experiment [7] (read-out: 1a Q30R); 0.06 nM in experiment [7] (read-out: 1a Q30R (nM)).
In the case of `COC(=O)N[C@H](C(=O)N1C[C@@H](C)C[C@H]1c1nc2ccc3cc4c(cc3c2[nH]1)OCc1cc(-c2cnc([C@@H]3C[C@H](C)CN3C(=O)[C@H](NC(=O)OC)c3ccccc3)[nH]2)ccc1-4)C(C)C` [Example PG, methyl {(1R)-2-[(2S,4S)-2-(5-{2-[(2S,4S)-1-{(2S)-2-[(methoxycarbonyl)amino]-3-methylbutanoyl}-4-methylpyrrolidin-2-yl]-1,11-dihydroisochromeno[4′,3′:6,7]naphtho[1,2-d]imidazol-9-yl}-1H-imidazol-2-yl)-4-methylpyrrolidin-1-yl]-2-oxo-1-phenylethyl}carbamate], the EC50 is below 1 nM in experiment [1] (read-out: 1a); 0.033 nM in experiment [1] (read-out: 1a (nM)); below 1 nM in experiment [2] (read-out: 2a JFH); 0.018 nM in experiment [2] (read-out: 2a JFH (nM)); below 1 nM in experiment [3] (read-out: 3a); 0.05 nM in experiment [3] (read-out: 3a (nM)). Besides, the EC50 in experiment [4] (read-out: 2a J6) is below 1 nM; in experiment [4] (read-out: 2a J6 (s) (nM)), 0.335 nM; in experiment [4] (read-out: 2a Jb (t) (nM)), 0.045 nM; in experiment [5] (read-out: 2b), below 1 nM; in experiment [5] (read-out: 2b (s) (nM)) it was 0.119 nM; in experiment [5] (read-out: 2b (t) (nM)) it was 0.027 nM. The EC50 in experiment [6] (read-out: 4a) is below 1 nM; in experiment [6] (read-out: 4a (s) (nM)), 0.008 nM; in experiment [6] (read-out: 4a (t) (nM)), 0.063 nM; in experiment [7] (read-out: 1a Q30R), below 1 nM; in experiment [7] (read-out: 1a Q30R (nM)) it was 0.043 nM.
As to `COC[C@H]1C[C@@H](c2ncc(-c3ccc4c(c3)COc3cc5c(ccc6nc([C@@H]7CCCN7C(=O)[C@@H](NC(=O)OC)C(C)C)[nH]c65)cc3-4)[nH]2)N(C(=O)[C@H](NC(=O)OC)c2ccccc2)C1` [Example MU, methyl{(1R)-2-[(2S,4S)-2-(5-{2-[(2S)-1-{(2S)-2-[(methoxycarbonyl)amino]-3-methylbutanoyl}-pyrrolidin-2-yl]-1,11-dihydroisochromeno[4′,3′:6,7]naphtho[1,2-d]imidazol-9-yl}-1H-imidazol-2-yl)-4-(methoxymethyl)pyrrolidin-1-yl]-2-oxo-1-phenylethyl}carbamate], the EC50 was below 1 nM in experiment [1] (read-out: 1a); 0.008 nM in experiment [1] (read-out: 1a (nM)); below 1 nM in experiment [2] (read-out: 2a JFH); 0.004 nM in experiment [2] (read-out: 2a JFH (nM)); below 1 nM in experiment [3] (read-out: 3a); 0.017 nM in experiment [3] (read-out: 3a (nM)). The EC50 in experiment [4] (read-out: 2a J6) is below 1 nM; in experiment [4] (read-out: 2a J6 (s) (nM)), 0.046 nM; in experiment [4] (read-out: 2a Jb (t) (nM)), 0.013 nM; in experiment [5] (read-out: 2b), below 1 nM; in experiment [5] (read-out: 2b (s) (nM)), 0.025 nM; in experiment [5] (read-out: 2b (t) (nM)), 0.009 nM. The EC50 was below 1 nM in experiment [6] (read-out: 4a), 0.011 nM in experiment [6] (read-out: 4a (t) (nM)), below 1 nM in experiment [7] (read-out: 1a Q30R) and 0.023 nM in experiment [7] (read-out: 1a Q30R (nM)).
Consider `COC[C@H]1C[C@@H](c2ncc(-c3ccc4c(c3)COc3cc5c(ccc6nc([C@@H]7CC[C@H](C)N7C(=O)[C@@H](NC(=O)OC)C(C)C)[nH]c65)cc3-4)[nH]2)N(C(=O)[C@@H](NC(=O)OC)C(C)C)C1` [Example PZ, Methyl {(2S)-1-[(2S,5S)-2-(9-{2-[(2S,4S)-1-{(2S)-2-[(methoxycarbonyl)amino]-3-methylbutanoyl}-4-(methoxymethyl)pyrrolidin-2-yl]-1H-imidazol-5-yl}-1,11-dihydroisochromeno[4′,3′:6,7]naphtho[1,2-d]imidazol-2-yl)-5-methylpyrrolidin-1-yl]-3-methyl-1-oxobutan-2-yl}carbamate], for which the EC50 was below 1 nM in experiment [1] (read-out: 1a); 0.009 nM in experiment [1] (read-out: 1a (nM)); below 1 nM in experiment [2] (read-out: 2a JFH); 0.005 nM in experiment [2] (read-out: 2a JFH (nM)); below 1 nM in experiment [3] (read-out: 3a); below 1 nM in experiment [4] (read-out: 2a J6). Moreover, the EC50 is 1.71 nM in experiment [4] (read-out: 2a J6 (s) (nM)); 0.175 nM in experiment [4] (read-out: 2a Jb (t) (nM)); below 1 nM in experiment [5] (read-out: 2b); 0.386 nM in experiment [5] (read-out: 2b (s) (nM)); 0.071 nM in experiment [5] (read-out: 2b (t) (nM)); 0.025 nM in experiment [6] (read-out: 4a (s) (nM)). For the same molecule, the EC50 in experiment [7] (read-out: 1a Q30R) was below 1 nM; in experiment [7] (read-out: 1a Q30R (nM)), 0.057 nM.
Regarding `COC[C@H]1C[C@@H](c2nc3ccc4cc5c(cc4c3[nH]2)OCc2cc(-c3cnc([C@@H]4CCCN4C(=O)[C@@H](NC(=O)OC)C(C)C)[nH]3)ccc2-5)N(C(=O)[C@H](N)c2ccccc2)C1` [Example OO, Methyl {(2S)-1-[(2S)-2-(5-{2-[(2S,4S)-1-[(2R)-2-amino-2-phenylacetyl]-4-(methoxymethyl)pyrrolidin-2-yl]-1,11-dihydroisochromeno[4′,3′:6,7]naphtho[1,2-d]imidazol-9-yl}-1H-imidazol-2-yl)pyrrolidin-1-yl]-3-methyl-1-oxobutan-2-yl}carbamate], the EC50 was below 1 nM in experiment [1] (read-out: 1a); 0.072 nM in experiment [1] (read-out: 1a (nM)); below 1 nM in experiment [2] (read-out: 2a JFH); 0.015 nM in experiment [2] (read-out: 2a JFH (nM)); below 1 nM in experiment [3] (read-out: 3a); 0.028 nM in experiment [3] (read-out: 3a (nM)). Besides, the EC50 is below 1 nM in experiment [4] (read-out: 2a J6); 0.259 nM in experiment [4] (read-out: 2a J6 (s) (nM)); 0.028 nM in experiment [4] (read-out: 2a Jb (t) (nM)); below 1 nM in experiment [5] (read-out: 2b); 0.076 nM in experiment [5] (read-out: 2b (s) (nM)); 0.02 nM in experiment [5] (read-out: 2b (t) (nM)). The EC50 in experiment [6] (read-out: 4a) is below 1 nM; in experiment [6] (read-out: 4a (s) (nM)), 0.018 nM; in experiment [6] (read-out: 4a (t) (nM)), 0.086 nM; in experiment [7] (read-out: 1a Q30R), below 1 nM; in experiment [7] (read-out: 1a Q30R (nM)), 0.139 nM.
Consider `COC(=O)N[C@H](C(=O)N1[C@@H](C)CC[C@H]1c1ncc(-c2ccc3c(c2)COc2cc4c(ccc5nc([C@@H]6CCCN6C(=O)[C@@H](NC(=O)OC)[C@@H](C)OC)[nH]c54)cc2-3)[nH]1)C(C)C` [Compound 603], for which the EC50 in experiment [1] (read-out: 1a) is below 1 nM; in experiment [1] (read-out: 1a (nM)), 0.009 nM; in experiment [2] (read-out: 2a JFH) it was below 1 nM; in experiment [2] (read-out: 2a JFH (nM)) it was 0.007 nM; in experiment [3] (read-out: 3a), below 1 nM; in experiment [3] (read-out: 3a (nM)) it was 0.015 nM. The EC50 in experiment [4] (read-out: 2a J6) was below 1 nM; in experiment [4] (read-out: 2a Jb (t) (nM)) it was 0.194 nM; in experiment [5] (read-out: 2b), below 1 nM; in experiment [5] (read-out: 2b (s) (nM)), 0.088 nM; in experiment [5] (read-out: 2b (t) (nM)) it was 0.067 nM; in experiment [6] (read-out: 4a), below 1 nM. Also, the EC50 in experiment [6] (read-out: 4a (s) (nM)) is 0.022 nM; in experiment [7] (read-out: 1a Q30R), below 1 nM; in experiment [7] (read-out: 1a Q30R (nM)) it was 0.146 nM.
